Patent publication US20210267203A1, “PESTICIDALLY ACTIVE AZOLE-AMIDE COMPOUNDS” (SYNGENTA PARTICIPATIONS AG, priority 2018, published 2021)

Tests used:
Assay type in all cases: in vivo
[1] = test system: Myzus persicae (Green Peach Aphid); assay: Example B13: activity against Myzus persicae (green peach aphid), 96-well sucrose solution; details: 120 h, application rate 50 ppm, 5 days after infestation
From the text: Example B13: Activity Against Myzus persicae (Green Peach Aphid)
Test compounds prepared from 10,000 ppm DMSO stock solutions were applied by a liquid handling robot into 96-well microtiter plates and mixed with a sucrose solution. Parafilm was stretched over the 96-well microtiter plate and a plastic stencil with 96 holes was placed onto the plate. Aphids were sieved into the wells directly onto the Parafilm. The infested plates were closed with a gel blotting card and a second plastic stencil and then turned upside down. The samples were assessed for mortality 5 days after infestation.

[2] = test system: Myzus persicae (Green Peach Aphid); assay: Example B8: Myzus persicae (green peach aphid), intrinsic activity; details: 120 h, test rate 12 ppm, sucrose solution, 24-well, 5 days after infestation
From the text: Example B8: Myzus persicae (Green Peach Aphid), Intrinsic Activity
Test compounds prepared from 10,000 ppm DMSO stock solutions were applied by pipette into 24-well microtiter plates and mixed with sucrose solution. The plates were closed with a stretched Parafilm. A plastic stencil with 24 holes was placed onto the plate and infested pea seedlings were placed directly on the Parafilm. The infested plate was closed with a gel blotting paper and another plastic stencil and then turned upside down. The samples were assessed for mortality 5 days after infestation.

[3] = test system: Plutella xylostella (Diamondback Moth); assay: Example B14: activity against Plutella xylostella (diamondback moth), 96-well artificial diet; details: 216 h, application rate 500 ppm, 9 days after infestation
Procedure: Example B14: Activity Against Plutella xylostella (Diamondback Moth)
96-well microtiter plates containing artificial diet were treated with aqueous test solutions, prepared from 10,000 ppm DMSO stock solutions, by a liquid handling robot. After drying, eggs (30 per well) were infested onto a netted lid which was suspended above the diet. The eggs hatch and L1 larvae move down to the diet. The samples were assessed for mortality 9 days after infestation.
The following compounds gave an effect of at least 80% average mortality at an application rate of 500 ppm: […]

[4] = test system: Plutella xylostella (Diamond Back Moth); assay: Example B5: Plutella xylostella (diamond back moth), artificial diet, 24-well, eggs; details: 192 h, application rate 200 ppm, 8 days after infestation, read-out: effect in at least one of the two categories (mortality or growth inhibition)
Procedure: Example B5: Plutella xylostella (Diamond Back Moth)
24-well microtiter plates with artificial diet were treated with aqueous test solutions prepared from 10,000 ppm DMSO stock solutions by pipetting. After drying, Plutella eggs were pipetted through a plastic stencil onto a gel blotting paper and the plate was closed with it. The samples were assessed for mortality and growth inhibition in comparison to untreated samples 8 days after infestation. The following compounds gave an effect of at least 80% in at least one of the two categories (mortality or growth inhibition) at an application rate of 200 ppm: […]

[5] = test system: Diabrotica Balteata (Corn Root Worm); assay: Example B1: Diabrotica balteata (corn root worm), maize sprouts sprayed, L2 larvae; details: 96 h, application rate 200 ppm, 4 days after infestation, read-out: effect in at least one of the two categories (mortality or growth inhibition)
Procedure: Example B1: Diabrotica Balteata (Corn Root Worm)
Maize sprouts placed onto an agar layer in 24-well microtiter plates were treated with aqueous test solutions prepared from 10,000 ppm DMSO stock solutions by spraying. After drying, the plates were infested with L2 larvae (6 to 10 per well). The samples were assessed for mortality and growth inhibition in comparison to untreated samples 4 days after infestation.
(§1) The following compounds gave an effect of at least 80% in at least one of the two categories (mortality or growth inhibition) at an application rate of 200 ppm: […]

[6] = test system: Spodoptera littoralis (Egyptian Cotton Leaf Worm); assay: Example B9: Spodoptera littoralis (Egyptian cotton leaf worm), cotton leaf discs sprayed, L1 larvae; details: foliar, 72 h, application rate 200 ppm, 3 days after infestation
Procedure: Example B9: Spodoptera littoralis (Egyptian Cotton Leaf Worm)
Cotton leaf discs were placed onto agar in 24-well microtiter plates and sprayed with aqueous test solutions prepared from 10,000 ppm DMSO stock solutions. After drying the leaf discs were infested with five L1 larvae. The samples were assessed for mortality, anti-feeding effect, and growth inhibition in comparison to untreated samples 3 days after infestation. Control of Spodoptera littoralis by a test sample is given when at least one of the three categories (i.e. mortality, anti-feedant effect, and growth inhibition) is higher than the untreated sample.

[7] = test system: Euschistus heros (Neotropical Brown Stink Bug); assay: Example B2: Euschistus heros (neotropical brown stink bug), soybean leaves sprayed, N2 nymphs; details: 120 h, application rate 200 ppm, 5 days after infestation, read-out: effect in at least one of the two categories (mortality or growth inhibition)
Procedure: Example B2: Euschistus heros (Neotropical Brown Stink Bug)
Soybean leaves on agar in 24-well microtiter plates were sprayed with aqueous test solutions prepared from 10,000 ppm DMSO stock solutions. After drying the leaves were infested with N2 nymphs. The samples were assessed for mortality and growth inhibition in comparison to untreated samples 5 days after infestation.
as §1

[8] = test system: Chilo suppressalis (Striped Rice Stemborer); assay: Example B4: Chilo suppressalis (striped rice stemborer), artificial diet, L2 larvae; details: 144 h, application rate 200 ppm, 6 days after infestation
Procedure: Example B4: Chilo suppressalis (Striped Rice Stemborer)
24-well microtiter plates with artificial diet were treated with aqueous test solutions prepared from 10,000 ppm DMSO stock solutions by pipetting. After drying, the plates were infested with L2 larvae (6-8 per well). The samples were assessed for mortality, anti-feeding effect, and growth inhibition in comparison to untreated samples 6 days after infestation. Control of Chilo suppressalis by a test sample is given when at least one of the categories (i.e. mortality, anti-feedant effect, and growth inhibition) is higher than the untreated sample.

CC(c1ncnn1-c1ncccn1)N(CC1CC1)C(=O)c1cccc(C2(C#N)CC2)c1 (centres unmarked) [P21, 3-(1-cyanocyclopropyl)-N-(cyclopropylmethyl)-N-[1-(2-pyrimidin-2-yl-1,2,4-triazol-3-yl)ethyl]benzamide]
≥ 80%: mortality at 50 ppm [1] | mortality at 12 ppm [2] | mortality at 500 ppm [3]

CC(c1ncnn1-c1ncccn1)N(CC1CC1)C(=O)c1cccc(C2CC2C(F)(F)F)c1 (centres unmarked) [P23, N-(cyclopropylmethyl)-N-[1-(2-pyrimidin-2-yl-1,2,4-triazol-3-yl)ethyl]-3-[2-(trifluoromethyl)cyclopropyl]benzamide]
≥ 80%: mortality at 50 ppm [1] | mortality at 12 ppm [2] | mortality at 500 ppm [3] | percent effect (mortality or growth inhibition) at 200 ppm [4]

CC(c1ncnn1-c1ncccn1)N(CC1CC1)C(=O)c1cc(C(F)(F)F)cc(C(C)(C)C#N)n1 (centres unmarked) [P31, 6-(1-cyano-1-methyl-ethyl)-N-(cyclopropylmethyl)-N-[1-(2-pyrimidin-2-yl-1,2,4-triazol-3-yl)ethyl]-4-(trifluoromethyl)pyridine-2-carboxamide]
≥ 80%: mortality at 50 ppm [1] | percent effect (mortality or growth inhibition) at 200 ppm [5] | mortality at 500 ppm [3] | percent effect (mortality or growth inhibition) at 200 ppm [4]

CC(c1ncnn1-c1ncccn1)N(CC1CC1)C(=O)c1cc(C(F)(F)F)cc(C2(C#N)CC2)n1 (centres unmarked) [P33, 6-(1-cyanocyclopropyl)-N-(cyclopropylmethyl)-N-[1-(2-pyrimidin-2-yl-1,2,4-triazol-3-yl)ethyl]-4-(trifluoromethyl)pyridine-2-carboxamide]
≥ 80%: mortality at 50 ppm [1] | percent effect (mortality or growth inhibition) at 200 ppm [5] | mortality at 500 ppm [3] | percent effect (mortality or growth inhibition) at 200 ppm [4]

CC(c1ncnn1-c1ncccn1)N(CC1CC1)C(=O)c1cccc(C(F)(F)C2CC2)c1 (centres unmarked) [P40, 3-[cyclopropyl(difluoro)methyl]-N-(cyclopropylmethyl)-N-[1-(2-pyrimidin-2-yl-1,2,4-triazol-3-yl)ethyl]benzamide]
≥ 80%: mortality at 50 ppm [1] | percent effect (mortality or growth inhibition) at 200 ppm [5] | mortality at 500 ppm [3] | percent effect (mortality or growth inhibition) at 200 ppm [4] | percent control (mortality, anti-feedant effect or growth inhibition) at 200 ppm [6]

CC(c1ncnn1-c1ncccn1)N(CC1CC1)C(=O)c1cc(C(F)(F)F)cc(C2(C(F)(F)F)CC2(F)F)c1 (centres unmarked) [P41, N-(cyclopropylmethyl)-3-[2,2-difluoro-1-(trifluoromethyl)cyclopropyl]-N-[1-(2-pyrimidin-2-yl-1,2,4-triazol-3-yl)ethyl]-5-(trifluoromethyl)benzamide]
≥ 80%: percent effect (mortality or growth inhibition) at 200 ppm [5] | mortality at 500 ppm [3] | percent effect (mortality or growth inhibition) at 200 ppm [7] | percent effect (mortality or growth inhibition) at 200 ppm [4] | percent control (mortality, anti-feedant effect or growth inhibition) at 200 ppm [6]

CC(c1ncnn1-c1ncccn1)N(CC1CC1)C(=O)c1cc(C(F)(F)F)cc(C2(C)CC2(F)F)c1 (centres unmarked) [P44, N-(cyclopropylmethyl)-3-(2,2-difluoro-1-methyl-cyclopropyl)-N-[1-(2-pyrimidin-2-yl-1,2,4-triazol-3-yl)ethyl]-5-(trifluoromethyl)benzamide]
≥ 80%: mortality at 50 ppm [1] | percent effect (mortality or growth inhibition) at 200 ppm [5] | mortality at 500 ppm [3] | percent effect (mortality or growth inhibition) at 200 ppm [7] | percent effect (mortality or growth inhibition) at 200 ppm [4] | percent control (mortality, anti-feedant effect or growth inhibition) at 200 ppm [6]

CC(c1ncnn1-c1ncccn1)N(CC1CC1)C(=O)c1cc(OC2CC2)cc(C(F)(F)F)c1 (centres unmarked) [P51, 3-(cyclopropoxy)-N-(cyclopropylmethyl)-N-[1-(2-pyrimidin-2-yl-1,2,4-triazol-3-yl)ethyl]-5-(trifluoromethyl)benzamide]
≥ 80%: mortality at 50 ppm [1] | percent effect (mortality or growth inhibition) at 200 ppm [5] | mortality at 500 ppm [3] | percent effect (mortality or growth inhibition) at 200 ppm [4] | percent control (mortality, anti-feedant effect or growth inhibition) at 200 ppm [6]

CC(c1ncnn1-c1ncccn1)N(CC1CC1)C(=O)c1cc(C(F)(F)F)nc(S(C)(=O)=O)c1 (centres unmarked) [P53, N-(cyclopropylmethyl)-2-methylsulfonyl-N-[1-(2-pyrimidin-2-yl-1,2,4-triazol-3-yl)ethyl]-6-(trifluoromethyl)pyridine-4-carboxamide]
≥ 80%: percent effect (mortality or growth inhibition) at 200 ppm [7]

CC(c1ncnn1-c1ncccn1)N(CC1CC1)C(=O)c1cc(OC2CC2)cc(OC2CC2)c1 (centres unmarked) [P60, 3,5-bis(cyclopropoxy)-N-(cyclopropylmethyl)-N-[1-(2-pyrimidin-2-yl-1,2,4-triazol-3-yl)ethyl]benzamide]
≥ 80%: mortality at 50 ppm [1] | percent effect (mortality or growth inhibition) at 200 ppm [5] | mortality at 500 ppm [3] | percent effect (mortality or growth inhibition) at 200 ppm [4]

CC(NC(=O)c1cc(C(F)(F)F)cc(C(F)(F)C2CCC2)c1)c1ncnn1-c1ncccn1 (centres unmarked) [P66, 3-[cyclobutyl(difluoro)methyl]-N-[1-(2-pyrimidin-2-yl-1,2,4-triazol-3-yl)ethyl]-5-(trifluoromethyl)benzamide]
≥ 80%: percent control (mortality, anti-feedant effect or growth inhibition) at 200 ppm [8]

CC(NC(=O)c1cc(C2CC2)cc(C(F)(F)F)c1)c1ncnn1-c1ccc(Br)cn1 (centres unmarked) [P74, N-[1-[2-(5-bromo-2-pyridyl)-1,2,4-triazol-3-yl]ethyl]-3-cyclopropyl-5-(trifluoromethyl)benzamide]
≥ 80%: percent effect (mortality or growth inhibition) at 200 ppm [5] | percent effect (mortality or growth inhibition) at 200 ppm [4] | percent control (mortality, anti-feedant effect or growth inhibition) at 200 ppm [8] | percent control (mortality, anti-feedant effect or growth inhibition) at 200 ppm [6]

CC(NC(=O)c1cc(C(F)(F)F)cc(C2(C#N)CC2)c1)c1ncnn1-c1ccccn1 (centres unmarked) [P76, 3-(1-cyanocyclopropyl)-N-[1-[2-(2-pyridyl)-1,2,4-triazol-3-yl]ethyl]-5-(trifluoromethyl)benzamide]
≥ 80%: percent effect (mortality or growth inhibition) at 200 ppm [5] | percent effect (mortality or growth inhibition) at 200 ppm [4] | percent control (mortality, anti-feedant effect or growth inhibition) at 200 ppm [8] | percent control (mortality, anti-feedant effect or growth inhibition) at 200 ppm [6]
